From patent US10299467B2, “Animal model for type 2 diabetes and obesity” (Universitaetsklinikum Freiburg, priority 2012, dated 2019)

Legend:
Type in all cases: in vivo, mouse
WAT of mice [1] = assay: β3-adrenergic agonist treatment of mice, H&E staining of white adipose tissue (beige fat islets)
Experimental: (§1) All mice were housed in the pathogen-free barrier facility of the University Medical Center Freiburg in accordance with institutional guidelines and approved by the regional board. Mice were maintained in a temperature- and humidity-controlled animal facility with a 12-hour light/dark cycle, free access to water, and a standard rodent chow (Kliba, breeding, 3807). The high-fat diet (HFD) study was carried out with a chow containing 4.056 kcal/kg (fat: 1.600 kcal/kg and sucrose: 1.600 kcal/kg; Research Diets). HFD was given to mice at 5 weeks of age. Mice were analysed at 25 weeks of age. For cold exposure experiments, mice were maintained at 10° C. with a 12 hour light/dark cycle, free access to water, and a standard rodent chow. Animals were killed by cervical dislocation, tissues were immediately collected, weighted, frozen in liquid nitrogen or processed for further analyses. Nomenclature for dissected adipose depots was used according to Seale et al.^17. Epididymidal WAT (epWAT): prominent bilateral intra-abdominal visceral depots in male mice attached to the epididymis. Inguinal WAT (ingWAT): bilateral superficial inguinal depots between the skin and muscle fascia just anterior to the lower segment of the hind limbs. Perimuscular WAT (pmWAT): depots located on the upper part of the quadriceps muscle. […]

LSD1 = assay: β3-adrenergic agonist treatment of mice, Western blot of LSD1 in WAT; settings: wild-type mice, CL316,243 injected intraperitoneally at 1 mg/kg vs vehicle
Experimental: as §1, with “al.^17.” for “al.^17. Epididymidal WAT (epWAT): prominent bilateral intra-abdominal visceral depots in male mice attached to the epididymis. Inguinal WAT (ingWAT): bilateral superficial inguinal depots between the skin and muscle fascia just anterior to the lower segment of the hind limbs. Perimuscular WAT (pmWAT): depots located on the upper part of the quadriceps muscle.”
Homogenates were separated in 10% polyacrylamide gels and blotted to Hybond nitrocellulose membranes (GE Healthcare). […] Secondary antibodies conjugated to horseradish peroxidase (GE Healthcare) were detected using an enhanced chemiluminescence detection system (GE Healthcare). Protein levels were quantified using the Chemi Capt software (Peqlab).

WAT of mice [2] = assay: β3-adrenergic agonist treatment of Ctrl and LSD1+/− mice, qRT-PCR transcript levels in WAT
Experimental: All mice were housed in the pathogen-free barrier facility of the University Medical Center Freiburg in accordance with institutional guidelines and approved by the regional board. Mice were maintained in a temperature- and humidity-controlled animal facility with a 12-hour light/dark cycle, free access to water, and a standard rodent chow (Kliba, breeding, 3807). The high-fat diet (HFD) study was carried out with a chow containing 4.056 kcal/kg (fat: 1.600 kcal/kg and sucrose: 1.600 kcal/kg; Research Diets). HFD was given to mice at 5 weeks of age. Mice were analysed at 25 weeks of age. For cold exposure experiments, mice were maintained at 10° C. with a 12 hour light/dark cycle, free access to water, and a standard rodent chow. Animals were killed by cervical dislocation, tissues were immediately collected, weighted, frozen in liquid nitrogen or processed for further analyses. Nomenclature for dissected adipose depots was used according to Seale et al.^17. Epididymidal WAT (epWAT): prominent bilateral intra-abdominal visceral depots in male mice attached to the epididymis. Inguinal WAT (ingWAT): bilateral superficial inguinal depots between the skin and muscle fascia just anterior to the lower segment of the hind limbs. Perimuscular WAT (pmWAT): depots located on the upper part of the quadriceps muscle. Retroperitoneal WAT (rpWAT): bilateral depots in abdominal cavity behind the peritoneum on the dorsal side of the kidney. Interscapular BAT (BAT): most prominent depot of brown adipocytes in rodents, found between the scapulae. In vivo experiments including food consumption, serum analysis, glucose tolerance and insulin sensitivity tests, temperature measurements, body lean and fat contents, and energy expenditure were described^48. CL316,243 (Sigma-Aldrich) was injected intraperitoneally at 1 mg/kg.
RNA was isolated with TRIzol Reagent (Invitrogen). […] Quantitative RT-PCR was performed using the Abgene SYBR Green PCR kit (Invitrogen) according to the supplier's protocol. Data were analysed using the standard curve method^53. […]

C[C@H](Cc1ccc2c(c1)OC(C(=O)[O-])(C(=O)[O-])O2)NC[C@H](O)c1cccc(Cl)c1.[Na+].[Na+] [CL316,243]
clusters of beige fat cells in WAT (WAT of mice [1]; LSD1+/− mice compared to control mice, both treated with CL316,243): fewer clusters of beige fat cells
beige adipocyte formation in WAT (WAT of mice [1]; wild-type mice, CL316,243 injected intraperitoneally at 1 mg/kg vs vehicle): appearance of multilocular beige adipocytes
LSD1 protein levels in WAT (LSD1): increased
expression of white fat-selective and adipogenic markers (WAT of mice [2]; Ctrl and LSD1+/− mice, vs vehicle): not significantly affected
adrenergic induction of Cidea, Prdm16, Pgc-1α, Ucp1 and beige fat-selective markers in WAT (WAT of mice [2]; LSD1+/− mice): impaired
expression of Cidea, Prdm16, Pgc-1α, and Ucp1 and of beige fat-selective markers in WAT (WAT of mice [2]; control mice, vs vehicle): significantly increases
